The source of these data is patent US6761919B2, “Ambient stable beverage” (priority 2000, dated 2004).

What all share (type): cell-based
The test system of experiment [1] is yeast Saccharomyces cerevisiae X2180-1B. Nature of the experiment: Growth of yeast in matrix of tubes of synthetic soft drink (0% tea) with preservatives and essential oil component, OD 600 nm at 14 days. To be noted: synthetic soft drink pH 3.4, 100 ppm essential oil component, cinnamic acid 1-175 ppm, 14 days 25° C. On the procedure: (§1) Synthetic soft drink contained glucose, 8%w/v, citric acid 3 g/l, potassium orthophosphate 1 g/l, magnesium chloride 0.1 g/l and yeast extract 0.1 g/l. The matrix of 30 ml tubes each contained 10 ml synthetic soft drink, pH 3.4. Sorbic acid was used in the range 1-250 ppm and cinnamic acid in the range 1-175 ppm. Tubes were inoculated with 10^4 cells of the yeast Saccharomyces cerevisiae X2180-1B. Tubes were then incubated for 14 days at 25° C. to allow surviving yeasts to grow out. At 14 days growth was measured by optical density at 600 nm in x11 diluted samples, and blank values subtracted.
as §1, with “each containing” for “each contained”, “soft drink” for “soft drink,”, “pH 3.4, all contained 100 ppm citral dimethyl acetal.” for “pH 3.4.”, “were” for “were then”
Synthetic soft drink contained glucose, 8%w/v, citric acid 3 g/l, potassium orthophosphate 1 g/l, magnesium chloride 0.1 g/l and yeast extract 0.1 g/l. The matrix of 30 ml tubes each contained 10 ml synthetic soft drink, pH 3.4. […] At 14 days growth was measured by optical density at 600 nm in x11 diluted samples, and blank values subtracted.
Synthetic soft drink contained glucose, 8%w/v, citric acid 3 g/l, potassium orthophosphate 1 g/l, magnesium chloride 0.1 g/l and yeast extract 0.1 g/l. […] At 14 days growth was measured by optical density at 600 nm in x11 diluted samples, and blank values subtracted.
Synthetic soft drink contained glucose, 8%w/v, citric acid 3 g/l, potassium orthophosphate 1 g/l, magnesium chloride 0.1 g/l and yeast extract 0.1 g/l. […] At 14 days growth was measured by optical density at 600 nm in x11 diluted samples, and blank values subtracted. […]

In experiment [2] the test system is spoilage mould Aspergillus niger POL10. The experiment can be described thus: Growth of spoilage mould in RTD tea with preservatives and increasing citral dimethyl acetal, visual at 28 days. The following applies: RTD tea pH 3.1, 0.14% tea; sorbic acid 200 ppm, cinnamic acid 60 ppm, EDTA 30 ppm; 10^4 conidiaspores; 28 days 25° C.; tested 1-400 ppm. The method, then: Growth of spoilage mould Aspergillus niger POL10 in 30 ml tubes each contained 10 ml RTD tea, pH 3.1, 0.14% tea. All tubes containing sorbic acid 200 ppm, cinnamic acid 60 ppm, EDTA 30 ppm. An essential oil component, citral dimethyl acetal, was added in increasing concentration to tubes, in the range 1-400 ppm. Tubes were inoculated with 10^4 conidiaspores of the mould Aspergillus niger POL10. Tubes were then incubated for 28 days at 25° C. to allow moulds to grow out. At 28 days growth was measured visually. Mould growth was visible in all tubes, excepting those containing >80 ppm citral dimethyl acetal.

Experiment [3] has as its system yeast Saccharomyces cerevisiae X2180-1B. The experiment can be described thus: Growth of yeast in matrix of tubes of Ready to Drink tea (0.14% tea) with preservatives and essential oil component, OD 600 nm at 14 days. The following applies: RTD tea pH 3.4, cinnamic acid 1-175 ppm, 14 days 25° C.; for tubes supporting yeast growth compared with control without essential oil (FIG. 13): benzoic acid 1-250 ppm; for tubes supporting yeast growth compared with control without essential oil (FIG. 1): sorbic acid 1-250 ppm; for tubes supporting yeast growth compared with control without essential oil (FIG. 19): sorbic acid+benzoic acid 1:1 1-250 ppm. On the procedure: The matrix of 30 ml tubes each contained 10 ml RTD tea, pH 3.4. […] Tubes were inoculated with 10^4 cells of the yeast Saccharomyces cerevisiae X2180-1B. Tubes were then incubated for 14 days at 25° C. to allow surviving yeasts to grow out. At 14 days growth was measured by optical density at 600 nm in x11 diluted samples, and blank values subtracted.
The matrix of 30 ml tubes each containing 10 ml RTD tea pH 3.4, all contained 100 ppm citral dimethyl acetal. […] Tubes were inoculated with 10^4 cells of the yeast Saccharomyces cerevisiae X2180-1B. Tubes were incubated for 14 days at 25° C. to allow surviving yeasts to grow out. At 14 days growth was measured by optical density at 600 nm in x11 diluted samples, and blank values subtracted.
The matrix of 30 ml tubes each containing 10 ml RTD tea pH 3.4, all contained 100 ppm cumic alcohol. […] Tubes were inoculated with 10^4 cells of the yeast Saccharomyces cerevisiae X2180-1B. Tubes were incubated for 14 days at 25° C. to allow surviving yeasts to grow out. At 14 days growth was measured by optical density at 600 nm in x11 diluted samples, and blank values subtracted.
The matrix of 30 ml tubes each containing 10 ml RTD tea pH 3.4, all contained 100 ppm citral. […] Tubes were inoculated with 10^4 cells of the yeast Saccharomyces cerevisiae X2180-1B. Tubes were incubated for 14 days at 25° C. to allow surviving yeasts to grow out. At 14 days growth was measured by optical density at 600 nm in x11 diluted samples, and blank values subtracted.
The matrix of 30 ml tubes each containing 10 ml RTD tea pH 3.4, all contained 50 ppm 3,7-dimethyl octanol. […] Tubes were inoculated with 10^4 cells of the yeast Saccharomyces cerevisiae X2180-1B. Tubes were incubated for 14 days at 25° C. to allow surviving yeasts to grow out. At 14 days growth was measured by optical density at 600 nm in x11 diluted samples, and blank values subtracted.
The matrix of 30 ml tubes each containing 10 ml RTD tea pH 3.4, all contained 100 ppm myrtenol. […] Tubes were inoculated with 10^4 cells of the yeast Saccharomyces cerevisiae X2180-1B. Tubes were incubated for 14 days at 25° C. to allow surviving yeasts to grow out. At 14 days growth was measured by optical density at 600 nm in x11 diluted samples, and blank values subtracted.
The matrix of 30 ml tubes each containing 10 ml RTD tea pH 3.4, all contained 100 ppm piperonyl acetate. […] Tubes were inoculated with 10^4 cells of the yeast Saccharomyces cerevisiae X2180-1B. Tubes were incubated for 14 days at 25° C. to allow surviving yeasts to grow out. At 14 days growth was measured by optical density at 600 nm in x11 diluted samples, and blank values subtracted.
The matrix of 30 ml tubes each containing 10 ml RTD tea pH 3.4, all contained 15 ppm trans, trans-2,4-decadienal. […] Tubes were inoculated with 10^4 cells of the yeast Saccharomyces cerevisiae X2180-1B. Tubes were incubated for 14 days at 25° C. to allow surviving yeasts to grow out. At 14 days growth was measured by optical density at 600 nm in x11 diluted samples, and blank values subtracted.
The matrix of 30 ml tubes each containing 10 ml RTD tea pH 3.4, all contained 100 ppm δ-decanolactone. […] Tubes were inoculated with 10^4 cells of the yeast Saccharomyces cerevisiae X2180-1B. Tubes were incubated for 14 days at 25° C. to allow surviving yeasts to grow out. At 14 days growth was measured by optical density at 600 nm in x11 diluted samples, and blank values subtracted.
The matrix of 30 ml tubes each containing 10 ml RTD tea pH 3.4, all contained 25 ppm citral dimethyl acetal and 35 ppm cumic alcohol. […] Tubes were inoculated with 10^4 cells of the yeast Saccharomyces cerevisiae X2180-1B. Tubes were incubated for 14 days at 25° C. to allow surviving yeasts to grow out. At 14 days growth was measured by optical density at 600 nm in x11 diluted samples, and blank values subtracted.
The matrix of 30 ml tubes each contained 10 ml RTD tea, pH 3.4. […]

The test system of another experiment is fungi. To be noted: Table I, preferred essential oils.
The mark [4] stands for this setting: 100 ppm essential oil component.

Where only a bound is given, the exact number is not on record here.

Turning to `COC(C=C(C)CCC=C(C)C)OC` [Citral dimethyl acetal], in experiment [1] (benzoic acid 1-250 ppm), the “tubes supporting yeast growth compared with control without essential oil (FIG. 17)” value is recorded as “very substantially fewer tubes supporting yeast growth”. In addition, the “tubes supporting yeast growth compared with control without essential oil (FIG. 11)” value in experiment [1] (sorbic acid 1-250 ppm) is “very substantially fewer tubes supporting yeast growth”. Besides, the “tubes supporting yeast growth compared with control without essential oil (FIG. 23)” value in experiment [1] (sorbic acid+benzoic acid 1:1 1-250 ppm) is given as “very substantially fewer tubes supporting yeast growth”. In addition, in experiment [2], the “concentration at which no mould growth was visible” value is given as greater than 80 ppm. In addition, in experiment [3] (setting [4]), the “tubes supporting yeast growth compared with control without essential oil (FIG. 13)” value is “very substantially fewer tubes supporting yeast growth”, the “tubes supporting yeast growth compared with control without essential oil (FIG. 1)” value is “very substantially fewer tubes supporting yeast growth” and the “tubes supporting yeast growth compared with control without essential oil (FIG. 19)” value is given as “very substantially fewer tubes supporting yeast growth”.

Turning to `CC(C)CCCC(C)CCO` (stereo not shown) [3,7-Dimethyl-1-octanol], in experiment [3] (50 ppm essential oil component), the “tubes supporting yeast growth compared with control without essential oil (FIG. 13)” value was “very substantially fewer tubes supporting yeast growth”, the “tubes supporting yeast growth compared with control without essential oil (FIG. 1)” value is “very substantially fewer tubes supporting yeast growth” and the “tubes supporting yeast growth compared with control without essential oil (FIG. 19)” value is listed as “very substantially fewer tubes supporting yeast growth”.

Regarding `CC(C)=CCCC(C)=CC=O` [Citral], the “tubes supporting yeast growth compared with control without essential oil (FIG. 1)” value in experiment [3] (setting [4]) is on record as “very substantially fewer tubes supporting yeast growth”.

`CC(=O)OCc1ccc2c(c1)OCO2` [Piperonyl acetate]: in experiment [3] (setting [4]), the “tubes supporting yeast growth compared with control without essential oil (FIG. 1)” value is reported as “very substantially fewer tubes supporting yeast growth”.

`CC1(C)C2CC=C(CO)C1C2` (stereo not shown) [Myrtenol]: the “tubes supporting yeast growth compared with control without essential oil (FIG. 1)” value in experiment [3] (setting [4]) is “very substantially fewer tubes supporting yeast growth”.

Take `CCCCC/C=C/C=C/C=O` [trans,trans-2,4-Decadienal]: the “tubes supporting yeast growth compared with control without essential oil (FIG. 1)” value in experiment [3] (15 ppm essential oil component) is recorded as “very substantially fewer tubes supporting yeast growth”.

With `CC(C)c1ccc(CO)cc1` [Cumic alcohol], the “tubes supporting yeast growth compared with control without essential oil (FIG. 1)” value in experiment [3] (setting [4]) is “very substantially fewer tubes supporting yeast growth”.

On to `CCCCCCCC(=O)O` [Octanoic acid (caprylic)], for which the “MIC (ppm)” value against fungi came to 115 ppm.
